The results in this text go back to paper PMC7037862, “Tricyclic Nucleobase Analogs and Their Ribosides as Substrates and Inhibitors of Purine-Nucleoside Phosphorylases III. Aminopurine Derivatives” (Molecules, 2020).

Series [1] is described as follows: Ionization constants (pKa), determined spectrophotometrically. It is filed as physicochemical. As to conditions: phosphate and/or acetate buffers, protonation, read-out: pKa (protonation). The method, then:
Fluorescence spectra were measured on a Varian Eclipse instrument (Varian Corp., Palo Alto, CA, USA), and UV absorption kinetic experiments were performed on a Cary 5000 (Varian Corp., Palo Alto, CA, USA) thermostated spectrophotometer. Fluorescence yields were determined relative to tryptophan (0.15) or 1,N^6-ethenoadenosine in water (0.56, see ref. [2]). Emission spectra were measured in semi-micro cuvettes, pathlength 4 mm, to diminish the inner-filter effect. Typical spectral resolution was 2.5 nm. The ionization constants (pKa values) were determined spectrophotometrically using 20–50 mM phosphate and/or acetate buffers.

The target in series [2] is T1, E. coli PNP (Escherichia coli, UniProt P0ABP8).
T1 construct: made in house; host or cells: E. coli
Description: Fluorescence titration of E. coli PNP with ligand (enzyme-ligand complexes). It is filed as binding. As to conditions: 40 mM phosphate buffer, pH 7, 20 °C; protein 11 μM per subunit. On the procedure:
Additionally, the fluorescence excitation spectra reveal fluorescence energy transfer (FRET) from the protein to the complexed ligand, since they show marked enhancement in the region 270–280 nm, where the tyrosine residues of the PNP molecule absorb (Figure 10).
Figure 10 Changes in fluorescence excitation (a) and emission spectra (b), observed during the titration of E. coli PNP with N^2,3-etheno-2-aminopurine (2). […] Spectra of the free ligand (3.5 μM) are given for comparison (points). Excitation spectrum of the protein, monitored at 310 nm, is given in black. Conditions: 40 mM phosphate, pH 7, at 20 °C. Concentration of protein was 10.1 μM (per subunit); that of the titrant was 0 to 3.5 μM. Lower panels: Fluorescence difference spectra, calculated from data presented on panels (a) and (b), (c) difference excitation (observed at 380 nm), (d) difference emission spectra, excited at 275 nm. Substrate concentrations are 0.17, 0.69, 1.37, 2.36 and 3.31 μM.
Etheno-tubercidine (6) forms somewhat similar fluorescent complexes with the E. coli PNP. As shown below, FRET from the protein to the ligand is evident in the excitation spectra (Figure 11), and the ligand fluorescence blue shifted from 415 to ca. 390 nm (Figure 11b,c). In this case more than 60% of protein fluorescence is quenched when protein binding sites are saturated (cf. Figure 11). […]

The target of another series is T2, calf PNP (Bos taurus, UniProt P55859).
T2 construct: made in house; host or cells: E. coli
T2 sequence (P55859 1-289): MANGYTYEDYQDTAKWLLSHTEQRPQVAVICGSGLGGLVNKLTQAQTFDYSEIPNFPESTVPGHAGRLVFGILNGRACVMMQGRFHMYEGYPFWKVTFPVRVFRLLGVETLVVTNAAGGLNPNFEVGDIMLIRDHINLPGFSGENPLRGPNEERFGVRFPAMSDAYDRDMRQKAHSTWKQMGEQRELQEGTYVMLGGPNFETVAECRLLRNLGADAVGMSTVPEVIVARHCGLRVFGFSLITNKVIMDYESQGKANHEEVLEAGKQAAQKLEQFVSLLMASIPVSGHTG
Description: Inhibition of calf PNP. Type of series: biochemical. Conditions: concentrations up to 50 μM. The method, then: (§1) Etheno-tubercidine (6) is therefore a good candidate to observe enzyme-ligand complexes by spectral methods, as shown below. No inhibition of the calf PNP was observed, at least in moderate concentrations (up to 50 μM) that we used.
(§2) Enzymatic ribosylation reactions were carried out in 1 mL cuvettes (pathlength 4 mm) in ~50 mM HEPES buffer, pH 7.3, using 0.5 mM R1P as a ribose source. Reactions were followed fluorimetrically (see Section 2.4). On a larger scale (2–4 mg), the reactions were run in Eppendorf tubes, volume 2–3 mL, using either R1P (3–10 mM) or 7-methylguanosine as ribose sources. Products were purified by semi-preparative HPLC, concentrated and the final solutions kept frozen. Their structure has been confirmed by NMR (see Section 2.4 and Supplementary Materials) and by MS: comp. 3: m/z = 292.10385, comp. 4: m/z = 292.10400, comp. 5: m/z = 292.10398, calculated for C12H13N5O4 + H: 292.10403. Phosphorolysis reactions were run in 40–50 mM phosphate buffer, pH 7.0 or 6.5, and followed spectrally or fluorimetrically. Kinetic parameters were calculated by standard methods.

The target of series [3] is T1, E. coli PNP. Description: Inhibition of phosphorolysis of purine nucleosides catalyzed by E. coli PNP. It is filed as biochemical. Conditions: competitive inhibition of phosphorolysis of purine nucleosides; read-out: inhibition constant, Ki. The method, then: as §1, §2
Substrate in series [4]: OC[C@H]1O[C@@H](n2ccn3c4ncnc-4cnc23)[C@H](O)[C@@H]1O
Description: Enzymatic phosphorolysis of ribosides, E. coli PNP wild type. Type of series: biochemical. As to conditions: other: phosphorolysis, E. coli PNP-wt, 40 mM phosphate buffer pH 7. On the procedure:
(§3) Recombinant E. coli PNP, calf spleen PNP, and their mutated forms were expressed in E. coli and purified according to the procedures described earlier. Enzyme concentrations were calculated per monomer.
as §2

Substrate in series [5]: OC[C@H]1O[C@@H](n2ccn3cc4ncnc-4nc23)[C@H](O)[C@@H]1O
Described as above. Conditions: other: phosphorolysis, E. coli PNP-wt, 40 mM phosphate buffer pH 7. Type of series: biochemical. On the procedure:
as §3, §2

Substrate in series [6]: OC[C@H]1O[C@@H](n2ccn3c4ncnc-4cnc23)[C@H](O)[C@@H]1O
Description: Enzymatic phosphorolysis of ribosides, calf PNP wild type. Type of series: biochemical. Conditions: other: phosphorolysis, calf PNP-wt, 40 mM phosphate buffer pH 7. On the procedure: as §3, §2

The term pKa denotes the negative logarithm of the acid dissociation constant. By Ki is commonly meant the equilibrium dissociation constant of an inhibitor or competing ligand from its target. As to `OC[C@H]1O[C@@H](n2ccc3c2ncn2ccnc32)[C@H](O)[C@@H]1O` [Compound 6, 1,N^6-etheno-tubercidine], in series [1], the pKa came to 5.2. The “protein fluorescence quenched at saturation of binding sites” value at E. coli PNP [2] is “more than 60%”. Moreover, the “inhibition of the calf PNP” value against calf PNP was “No inhibition”. Also, on E. coli PNP [3], the Ki is about 4.5 µM.

B1: E. coli PNP-wt (Escherichia coli K-12) (protein)
chain: ATPHINAEMGDFADVVLMPGDPLRAKYIAETFLEDAREVNNVRGMLGFTGTYKGRKISVMGHGMGIPSCSIYTKELITDFGVKKIIRVGSCGAVLPHVKLRDVVIGMGACTDSKVNRIRFKDHDFAAIADFDMVRNAVDAAKALGIDARVGNLFSADLFYSPDGEMFDVMEKYGILGVEMEAAGIYGVAAEFGAKALTICTVSDHIRTHEQTTAAERQTTFNDMIKIALESVLLGDKE
notes: made in house; host or cells: E. coli
A word on the Km: it is the concentration of substrate that gives half-maximal velocity. Consider B1, for which the Km in series [4] was ~ 20 μM; in series [5], 47 µM.

B2: calf PNP-wt (Bos taurus) (protein)
chain: MANGYTYEDYQDTAKWLLSHTEQRPQVAVICGSGLGGLVNKLTQAQTFDYSEIPNFPESTVPGHAGRLVFGILNGRACVMMQGRFHMYEGYPFWKVTFPVRVFRLLGVETLVVTNAAGGLNPNFEVGDIMLIRDHINLPGFSGENPLRGPNEERFGVRFPAMSDAYDRDMRQKAHSTWKQMGEQRELQEGTYVMLGGPNFETVAECRLLRNLGADAVGMSTVPEVIVARHCGLRVFGFSLITNKVIMDYESQGKANHEEVLEAGKQAAQKLEQFVSLLMASIPVSGHTG
notes: as for B1
For the molecule B2, the Km in series [6] amounted to 4.6 µM.
